The source of these data is patent publication US20160297833A1, “THIENOPYRIMIDINES AS MKNK1 AND MKNK2 INHIBITORS” (BAYER PHARMA AKTIENGESELLSCHAFT, priority 2013, published 2016).

In one assay the target is T1, human full-length MKNK1 (Homo sapiens, UniProt Q9BUB5, T385D).
T1 construct: GST (N); purchased Carna Biosciences 02-145; host or cells: insect cells (baculovirus expression system)
T1 sequence (Q9BUB5 1-424 isoform Q9BUB5-2 T344D): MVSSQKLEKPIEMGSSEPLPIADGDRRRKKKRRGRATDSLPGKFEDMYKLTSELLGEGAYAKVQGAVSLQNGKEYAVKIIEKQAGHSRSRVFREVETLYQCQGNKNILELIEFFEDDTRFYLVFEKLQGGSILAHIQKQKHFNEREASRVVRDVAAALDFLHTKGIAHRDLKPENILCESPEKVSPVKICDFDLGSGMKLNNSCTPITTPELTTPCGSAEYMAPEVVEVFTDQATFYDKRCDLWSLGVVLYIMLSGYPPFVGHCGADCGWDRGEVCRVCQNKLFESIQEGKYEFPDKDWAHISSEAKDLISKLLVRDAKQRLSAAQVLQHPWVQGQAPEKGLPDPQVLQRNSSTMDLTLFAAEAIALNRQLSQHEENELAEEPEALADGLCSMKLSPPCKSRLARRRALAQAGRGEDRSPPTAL
As to the kind of experiment: MKNK1 kinase high ATP assay (TR-FRET). It counts as biochemical. The settings on record: Table 1; MKNK1 kinase high ATP assay, 2 mM ATP; read-out: MKNK1 IC50. The procedure, abridged:
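Full-length human MKNK1 (T385D) preincubated 15 min at 22 °C with compound in HEPES pH 7.5/MgCl2/DTT buffer; reaction with 2 mM ATP (final) and 0.06 μM biotinylated peptide (final), 30 min at 22 °C.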
(In general: Time-resolved FRET reads energy transfer from a long-lived donor to a nearby acceptor.)
In general, IC50 refers to the concentration that inhibits the measured activity by half. As to `CCN(CCO)C(=O)[C@H]1CCc2c(sc3ncnc(Nc4cc5cn[nH]c5cc4OC)c23)C1` [Example 40, (7S)—N-Ethyl-N-(2-hydroxyethyl)-4-[(6-methoxy-1H-indazol-5-yl)amino]-5,6,7,8-tetrahydro[1]benzothieno[2,3-d]pyrimidine-7-carboxamide], the IC50 is 0.2 nM.
For the compound `COc1cc2[nH]ncc2cc1Nc1ncnc2sc3c(c12)CC[C@@H](C(=O)N1CCC1)C3` [Example 22, Azetidin-1-yl{(7R)-4-[(6-methoxy-1H-indazol-5-yl)amino]-5,6,7,8-tetrahydro[1]benzothieno[2,3-d]pyrimidin-7-yl}methanone], the IC50 was 21.4 nM.
Turning to `C[C@H]1COCCN1C(=O)[C@H]1CCc2c(sc3ncnc(Nc4cc5cn[nH]c5cc4N(C)C)c23)C1` [Example 188, [(7S)-4-{[6-(Dimethylamino)-1H-indazol-5-yl]amino}-5,6,7,8-tetrahydro[1]benzothieno[2,3-d]pyrimidin-7-yl][(3S)-3-methylmorpholin-4-yl]methanone], the IC50 is 0.3 nM.
As for `COc1cc2[nH]ncc2cc1Nc1ncnc2sc3c(c12)CC[C@H](C(=O)N1CCCC1)C3` [Example 23, {(7S)-4-[(6-Methoxy-1H-indazol-5-yl)amino]-5,6,7,8-tetrahydro[1]benzothieno[2,3-d]pyrimidin-7-yl}(pyrrolidin-1-yl)methanone], the IC50 is 0.5 nM.
Regarding `O=C([C@H]1CCc2c(sc3ncnc(Nc4cc5cn[nH]c5cc4F)c23)C1)N1CC2CC2C1` (stereo partly drawn) [Example 220, 3-Azabicyclo[3.1.0]hex-3-yl{(7S)-4-[(6-fluoro-1H-indazol-5-yl)amino]-5,6,7,8-tetrahydro[1]benzothieno[2,3-d]pyrimidin-7-yl}methanone], the IC50 worked out at 4.3 nM.
Still for that read-out and setting: under `COc1cc2[nH]ncc2cc1Nc1ncnc2sc3c(c12)CC[C@H](C(=O)N1CCN(CCN(C)C)CC1)C3` [Example 50, {4-[2-(Dimethylamino)ethyl]piperazin-1-yl}{(7S)-4-[(6-methoxy-1H-indazol-5-yl)amino]-5,6,7,8-tetrahydro[1]benzothieno[2,3-d]pyrimidin-7-yl}methanone] stands 0.1 nM; under `CN(C)C(=O)[C@H]1CCc2c(sc3ncnc(Nc4cc5cn[nH]c5cc4N4CCC4)c23)C1` [Example 102, (7S)-4-{[6-(Azetidin-1-yl)-1H-indazol-5-yl]amino}-N,N-dimethyl-5,6,7,8-tetrahydro[1]benzothieno[2,3-d]pyrimidine-7-carboxamide], 24.5 nM; under `CCN(OC)C(=O)[C@H]1CCc2c(sc3ncnc(Nc4cc5cn[nH]c5cc4OC)c23)C1` [Example 197, (7S)—N-Ethyl-N-methoxy-4-[(6-methoxy-1H-indazol-5-yl)amino]-5,6,7,8-tetrahydro[1]benzothieno[2,3-d]pyrimidine-7-carboxamide], 0.1 nM.
For the compound `CCC(=O)NCCOc1cc2[nH]ncc2cc1Nc1ncnc2sc3c(c12)CC[C@H](C(=O)N(C)C)C3` [Example 269, (7S)—N,N-Dimethyl-4-({6-[2-(propanoylamino)ethoxy]-1H-indazol-5-yl}amino)-5,6,7,8-tetrahydro[1]benzothieno[2,3-d]pyrimidine-7-carboxamide], the IC50 was found to be 1.3 nM.
Same read-out and setting: under `CN(CC(F)(F)F)C(=O)[C@H]1CCc2c(sc3ncnc(Nc4ccc5[nH]ncc5c4)c23)C1` [Example 5, (7S)-4-(1H-Indazol-5-ylamino)-N-methyl-N-(2,2,2-trifluoroethyl)-5,6,7,8-tetrahydro[1]benzothieno[2,3-d]pyrimidine-7-carboxamide] stands 18.3 nM; under `CN(C)C1CCN(c2cc3[nH]ncc3cc2Nc2ncnc3sc4c(c23)CC[C@H](C(=O)N2C[C@H]3C[C@@H]2CO3)C4)CC1` [Example 154, [(7S)-4-({6-[4-(Dimethylamino)piperidin-1-yl]-1H-indazol-5-yl}amino)-5,6,7,8-tetrahydro[1]benzothieno[2,3-d]pyrimidin-7-yl][(1R,4R)-2-oxa-5-azabicyclo[2.2.1]hept-5-yl]methanone], 22.9 nM; under `CN(C)C(=O)[C@H]1CCc2c(sc3ncnc(Nc4cc5cn[nH]c5cc4N4CCCC4)c23)C1` [Example 103, (7S)—N,N-Dimethyl-4-{[6-(pyrrolidin-1-yl)-1H-indazol-5-yl]amino}-5,6,7,8-tetrahydro[1]benzothieno[2,3-d]pyrimidine-7-carboxamide], 1.3 nM.
With `CN(C)C1CCN(c2cc3[nH]ncc3cc2Nc2ncnc3sc4c(c23)CC[C@H](C(=O)N2CCOCC2)C4)CC1` [Example 133, [(7S)-4-({6-[4-(Dimethylamino)piperidin-1-yl]-1H-indazol-5-yl}amino)-5,6,7,8-tetrahydro[1]benzothieno[2,3-d]pyrimidin-7-yl](morpholin-4-yl)methanone], the IC50 was determined as 37.9 nM.
Same read-out and setting: under `COCCN(C)C(=O)[C@H]1CCc2c(sc3ncnc(Nc4ccc5[nH]ncc5c4)c23)C1` [Example 13, (7S)-4-(1H-Indazol-5-ylamino)-N-(2-methoxyethyl)-N-methyl-5,6,7,8-tetrahydro[1]benzothieno[2,3-d]pyrimidine-7-carboxamide] stands 3.2 nM; under `CN(C)C(=O)[C@H]1CCc2c(sc3ncnc(Nc4cc5cn[nH]c5cc4OCCCN=[N+]=[N-])c23)C1` [Example 110, (7S)-4-{[6-(3-Azidopropoxy)-1H-indazol-5-yl]amino}-N,N-dimethyl-5,6,7,8-tetrahydro[1]benzothieno[2,3-d]pyrimidine-7-carboxamide], 2.3 nM.
The same measure, in the same setting: under `O=C([C@H]1CCc2c(sc3ncnc(Nc4ccc5[nH]ncc5c4)c23)C1)N1C[C@H]2C[C@@H]1CO2` [Example 11, [(7S)-4-(1H-Indazol-5-ylamino)-5,6,7,8-tetrahydro[I]benzothieno[2,3-d]pyrimidin-7-yl][(1R,4R)-2-oxa-5-azabicyclo[2.2.1]hept-5-yl]methanone] stands 4 nM; under `CN(C)C(=O)[C@H]1CCc2c(sc3ncnc(Nc4cc5cn[nH]c5cc4OC4CN(C(=O)OC(C)(C)C)C4)c23)C1` [Example 265, tert-Butyl 3-[(5-{[(7S)-7-(dimethylcarbamoyl)-5,6,7,8-tetrahydro[1]benzothieno[2,3-d]pyrimidin-4-yl]amino}-1H-indazol-6-yl)oxy]azetidine-1-carboxylate], 0.9 nM; under `COc1cc2[nH]ncc2cc1Nc1ncnc2sc3c(c12)CC[C@H](C(=O)N(C)CC(C)(C)OC)C3` [Example 204, (7S)-4-[(6-Methoxy-1H-indazol-5-yl)amino]-N-(2-methoxy-2-methylpropyl)-N-methyl-5,6,7,8-tetrahydro[1]benzothieno[2,3-d]pyrimidine-7-carboxamide], 0.9 nM.
The same measure, in the same setting: under `CN(C)C1CCN(c2cc3[nH]ncc3cc2Nc2ncnc3sc4c(c23)CC[C@H](C(=O)N2C[C@@H]3C[C@H]2CO3)C4)CC1` [Example 153, [(7S)-4-({6-[4-(Dimethylamino)piperidin-1-yl]-1H-indazol-5-yl}amino)-5,6,7,8-tetrahydro[1]benzothieno[2,3-d]pyrimidin-7-yl][(1S,4S)-2-oxa-5-azabicyclo[2.2.1]hept-5-yl]methanone] stands 17.5 nM; under `COc1cc2[nH]ncc2cc1Nc1ncnc2sc3c(c12)CC[C@H](C(=O)N(C)CC(C)(C)O)C3` [Example 124, (7S)—N-(2-Hydroxy-2-methylpropyl)-4-[(6-methoxy-1H-indazol-5-yl)amino]-N-methyl-5,6,7,8-tetrahydro[1]benzothieno[2,3-d]pyrimidine-7-carboxamide], 0.3 nM; under `C[C@H](CN)Oc1cc2[nH]ncc2cc1Nc1ncnc2sc3c(c12)CC[C@H](C(=O)N(C)C)C3` [Example 152, (7S)-4-[(6-{[(2R)-1-Aminopropan-2-yl]oxy}-1H-indazol-5-yl)amino]-N,N-dimethyl-5,6,7,8-tetrahydro[1]benzothieno[2,3-d]pyrimidine-7-carboxamide], 0.6 nM.
Turning to `C[C@@H]1CN(C(=O)[C@H]2CCc3c(sc4ncnc(Nc5ccc6[nH]ncc6c5)c34)C2)C[C@H](C)O1` [Example 162, [(2R,6S)-2,6-dimethylmorpholin-4-yl][(7S)-4-(1H-indazol-5-ylamino)-5,6,7,8-tetrahydro[1]benzothieno[2,3-d]pyrimidin-7-yl]methanone], the IC50 was determined as 11.6 nM.
On the same count and under the same terms, under `C[C@@H]1COCCN1C(=O)[C@H]1CCc2c(sc3ncnc(Nc4cc5cn[nH]c5cc4N(C)C)c23)C1` [Example 187, [(7S)-4-{[6-(Dimethylamino)-1H-indazol-5-yl]amino}-5,6,7,8-tetrahydro[1]benzothieno[2,3-d]pyrimidin-7-yl][(3R)-3-methylmorpholin-4-yl]methanone] stands 0.2 nM.
With `C[C@H](CNC(=O)OC(C)(C)C)Oc1cc2[nH]ncc2cc1Nc1ncnc2sc3c(c12)CC[C@H](C(=O)N(C)C)C3` [Example 259, tert-Butyl {(2R)-2-[(5-{[(7S)-7-(dimethylcarbamoyl)-5,6,7,8-tetrahydro[1]benzothieno[2,3-d]pyrimidin-4-yl]amino}-1H-indazol-6-yl)oxy]propyl}carbamate], the IC50 was determined as 14.5 nM.
On to `C[C@@H]1COCCN1C(=O)[C@H]1CCc2c(sc3ncnc(Nc4cc5cn[nH]c5cc4F)c23)C1` [Example 223, {(7S)-4-[(6-Fluoro-1H-indazol-5-yl)amino]-5,6,7,8-tetrahydro[1]benzothieno[2,3-d]pyrimidin-7-yl}[(3R)-3-methylmorpholin-4-yl]methanone], for which the IC50 came to 8.4 nM.
The same measure, in the same setting: under `C[C@@H]1CN(C(=O)[C@H]2CCc3c(sc4ncnc(Nc5cc6cn[nH]c6cc5N5CCCC5)c34)C2)C[C@H](C)O1` [Example 183, [(2R,6S)-2,6-Dimethylmorpholin-4-yl][(7S)-4-{[6-(pyrrolidin-1-yl)-1H-indazol-5-yl]amino}-5,6,7,8-tetrahydro[1]benzothieno[2,3-d]pyrimidin-7-yl]methanone] stands 0.7 nM.

The assay is the same for the next values; noted with them: Table 2; ratio of the IC50-value of an R-enantiomer and its corresponding S-enantiomer.
With `CCN(CCO)C(=O)[C@H]1CCc2c(sc3ncnc(Nc4cc5cn[nH]c5cc4OC)c23)C1` [Example 40, (7S)—N-Ethyl-N-(2-hydroxyethyl)-4-[(6-methoxy-1H-indazol-5-yl)amino]-5,6,7,8-tetrahydro[1]benzothieno[2,3-d]pyrimidine-7-carboxamide], the “Activity-Ratio MKNK1” value worked out at 45.9.
